ChEMBL document CHEMBL1126483 (Bioorg Med Chem Lett, 1993)
Peptide text beside a SMILES is read from it.

Columns and labels:
[1] = molecular target: Neurotensin receptor type 1 (Mus musculus, UniProt O88319); experiment: Inhibition of specific binding of [125I]-Tyr3-NT(1-13) to NT receptors in neonatal mouse whole brain (minus cerebellum); format: tissue-based
[2] = molecular target: Neurotensin receptor type 1 (Mus musculus) (UniProt O88319); experiment: Tested for change in binding affinity to Neurotensin (NT) receptor in neonatal mouse whole brain (minus cerebellum); format: tissue-based
[3] = molecular target: Neurotensin receptor type 1 (Mus musculus) (UniProt O88319); conditions: Cerebellum
Description: Tested for change in binding affinity in neonatal mouse whole brain (minus cerebellum)

Neurotensin receptor type 1, sequence (O88319 whole entry): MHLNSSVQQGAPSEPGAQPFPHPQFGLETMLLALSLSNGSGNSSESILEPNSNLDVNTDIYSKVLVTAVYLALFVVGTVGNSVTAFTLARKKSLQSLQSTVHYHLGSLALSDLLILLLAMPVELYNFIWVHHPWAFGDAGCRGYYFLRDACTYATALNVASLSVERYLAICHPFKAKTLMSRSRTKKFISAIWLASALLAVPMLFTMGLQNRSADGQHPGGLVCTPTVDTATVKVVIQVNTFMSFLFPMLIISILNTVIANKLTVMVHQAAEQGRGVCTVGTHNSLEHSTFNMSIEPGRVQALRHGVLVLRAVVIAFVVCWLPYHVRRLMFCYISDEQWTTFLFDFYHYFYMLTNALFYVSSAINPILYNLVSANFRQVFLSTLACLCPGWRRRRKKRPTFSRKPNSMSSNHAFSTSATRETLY
Neurotensin receptor type 1 (Mus musculus), sequence (O88319 whole entry): as above

| Ki [1] [nM] | Ki ratio [2] | SMILES | further results |
| --- | --- | --- | --- |
| 0.1 |  | CC[C@H](C)[C@H](NC(=O)[C@H](Cc1ccc(O)cc1)NC(=O)[C@@H]1CCCN1C(=O)[C@H](CCCNC(=N)N)NC(=O)[C@H](CCCNC(=N)N)NC(=O)[C@@H]1CCCN1C(C)=O)C(=O)N[C@@H](CC(C)C)C(=O)O (Ac-PRRPYIL-OH) |  |
| 4.5 |  | CC(C)C[C@H](NC(=O)[C@H](C)NC(=O)[C@H](Cc1ccc(O)cc1)NC(=O)[C@@H]1CCCN1C(=O)[C@H](CCCNC(=N)N)NC(=O)[C@@H](N)CCCNC(=N)N)C(=O)O (H-RRPYAL-OH) |  |
| 0.21 |  | CC[C@H](C)[C@H](NC(=O)[C@H](Cc1ccc(O)cc1)NC(=O)[C@@H]1CCCN1C(=O)[C@H](CCCN=C(N)N)NC(=O)[C@H](CCCN=C(N)N)NC(=O)[C@@H]1CCCN1C(=O)[C@H](CCCCN)NC(=O)[C@H](CC(N)=O)NC(=O)[C@H](CCC(=O)O)NC(=O)[C@H](Cc1ccc(O)cc1)NC(C)=O)C(=O)N[C@@H](CC(C)C)C(=O)O (Ac-YENKPRRPYIL-OH) |  |
| 0.024 |  | CC[C@H](C)[C@H](NC(=O)[C@H](Cc1ccc(O)cc1)NC(=O)[C@@H]1CCCN1C(=O)[C@H](CCCNC(=N)N)NC(=O)[C@H](CCCNC(=N)N)NC(=O)[C@@H]1CCCN1C(=O)[C@H](CCCCN)NC(C)=O)C(=O)N[C@@H](CC(C)C)C(=O)O |  |
|  | 250 | CC(C)C[C@H](NC(=O)[C@H](C)NC(=O)[C@H](Cc1ccc(O)cc1)NC(=O)[C@@H]1CCCN1C(=O)[C@H](CCCN=C(N)N)NC(=O)[C@@H](N)CCCN=C(N)N)C(=O)O (H-RRPYAL-OH) |  |
| 2.1 |  | CC[C@H](C)[C@H](NC(=O)[C@H](Cc1ccc(O)cc1)NC(=O)[C@@H]1CCCN1C(=O)[C@H](C)NC(=O)[C@@H](N)CCCN=C(N)N)C(=O)N[C@@H](CC(C)C)C(=O)O |  |
| 12000 |  | CC[C@H](C)[C@H](NC(=O)[C@H](Cc1ccc(O)cc1)NC(=O)[C@@H]1CCCN1C(=O)[C@H](CCCNC(=N)N)NC(=O)[C@@H](N)CCCNC(=N)N)C(N)=O |  |
| 3900 |  | CC[C@H](C)[C@H](NC(=O)[C@H](C)NC(=O)[C@@H]1CCCN1C(=O)[C@H](CCCN=C(N)N)NC(=O)[C@@H](N)CCCN=C(N)N)C(=O)N[C@@H](C)C(=O)O |  |
| 0.25 |  | CC[C@H](C)[C@H](NC(=O)[C@H](Cc1ccc(O)cc1)NC(=O)[C@@H]1CCCN1C(=O)[C@H](CCCNC(=N)N)NC(=O)[C@H](C)N)C(=O)N[C@@H](CC(C)C)C(=O)O |  |
|  | 120 | CC[C@@H](C)[C@H](NC(=O)[C@H](Cc1ccc(O)cc1)NC(=O)[C@@H]1CCCN1C(=O)[C@H](C)NC(=O)[C@@H](N)CCCN=C(N)N)C(=O)N[C@@H](CC(C)C)C(=O)O |  |
|  | 11000 | CC[C@@H](C)[C@H](NC(=O)[C@H](Cc1ccc(O)cc1)NC(=O)[C@@H]1CCCN1C(=O)[C@H](CCCN=C(N)N)NC(=O)[C@@H](N)CCCN=C(N)N)C(=O)N[C@@H](C)C(=O)O |  |
|  | 220000 | CC[C@@H](C)[C@H](NC(=O)[C@H](C)NC(=O)[C@@H]1CCCN1C(=O)[C@H](CCCN=C(N)N)NC(=O)[C@@H](N)CCCN=C(N)N)C(=O)N[C@@H](C)C(=O)O |  |
|  | 6100 | CC[C@@H](C)[C@H](NC(=O)[C@H](C)NC(=O)[C@@H]1CCCN1C(=O)[C@H](CCCN=C(N)N)NC(=O)[C@@H](N)CCCN=C(N)N)C(=O)N[C@@H](CC(C)C)C(=O)O |  |
| 0.92 |  | CC[C@H](C)[C@H](NC(=O)[C@H](Cc1ccc(O)cc1)NC(=O)[C@H](C)NC(=O)[C@H](CCCN=C(N)N)NC(=O)[C@@H](N)CCCN=C(N)N)C(=O)N[C@@H](CC(C)C)C(=O)O |  |
| 200 |  | CC[C@H](C)[C@H](NC(=O)[C@H](Cc1ccc(O)cc1)NC(=O)[C@@H]1CCCN1C(=O)[C@H](CCCNC(=N)N)NC(=O)[C@@H](N)CCCNC(=N)N)C(=O)N[C@@H](C)C(=O)O |  |
|  | 14 | CC[C@@H](C)[C@H](NC(=O)[C@H](Cc1ccc(O)cc1)NC(=O)[C@@H]1CCCN1C(=O)[C@H](CCCN=C(N)N)NC(=O)[C@H](C)N)C(=O)N[C@@H](CC(C)C)C(=O)O |  |
| 0.013 |  | CC[C@H](C)[C@H](NC(=O)[C@H](Cc1ccc(O)cc1)NC(=O)[C@@H]1CCCN1C(=O)[C@H](CCCNC(=N)N)NC(=O)[C@H](CCCNC(=N)N)NC(=O)[C@@H]1CCCN1C(=O)[C@H](CCCCN)NC(=O)[C@H](CC(N)=O)NC(C)=O)C(=O)N[C@@H](CC(C)C)C(=O)O (Ac-NKPRRPYIL-OH) |  |
| 0.12 |  | CC[C@H](C)[C@H](NC(=O)[C@H](Cc1ccc(O)cc1)NC(=O)[C@@H]1CCCN1C(=O)[C@H](CCCNC(=N)N)NC(=O)[C@H](CCCNC(=N)N)NC(=O)[C@@H]1CCCN1C(=O)[C@H](CCCCN)NC(=O)[C@H](CC(N)=O)NC(=O)[C@H](CCC(=O)O)NC(C)=O)C(=O)N[C@@H](CC(C)C)C(=O)O (Ac-ENKPRRPYIL-OH) |  |
|  | 50 | CC[C@@H](C)[C@H](NC(=O)[C@H](Cc1ccc(O)cc1)NC(=O)[C@H](C)NC(=O)[C@H](CCCN=C(N)N)NC(=O)[C@@H](N)CCCN=C(N)N)C(=O)N[C@@H](CC(C)C)C(=O)O |  |
| 0.11 |  | CC[C@H](C)[C@H](NC(=O)[C@H](Cc1ccc(O)cc1)NC(=O)[C@@H]1CCCN1C(=O)[C@H](CCCNC(=N)N)NC(=O)[C@H](CCCNC(=N)N)NC(=O)[C@@H]1CCCN1C(=O)[C@H](CCCCN)NC(=O)[C@H](CC(N)=O)NC(=O)[C@H](CCC(=O)O)NC(=O)[C@H](Cc1ccc(O)cc1)NC(=O)[C@H](CC(C)C)NC(C)=O)C(=O)N[C@@H](CC(C)C)C(=O)O |  |
|  |  | CC[C@@H](C)[C@H](NC(=O)[C@H](Cc1ccc(O)cc1)NC(=O)[C@@H]1CCCN1C(=O)[C@H](CCCNC(=N)N)NC(=O)[C@@H](N)CCCNC(=N)N)C(=O)N[C@@H](CC(C)C)C(=O)O | Ki(1.8x10e-11) [3]: 1 M |
| 110 |  | CC[C@H](C)[C@H](NC(=O)[C@H](C)NC(=O)[C@@H]1CCCN1C(=O)[C@H](CCCN=C(N)N)NC(=O)[C@@H](N)CCCN=C(N)N)C(=O)N[C@@H](CC(C)C)C(=O)O |  |
